Results as given in patent US9637459B2, “Sodium and calcium salts of dihydroquinazoline derivative and use thereof as antiviral agents” (AiCuris GmbH & Co. KG, priority 2012, dated 2017).
≈ marks a conversion by molar mass, not a printed value. Read-outs that look alike come from different tables or passages of the source.

What was measured:
[1] = tested on: HCMV AD169 RV-HG; assay: HCMV fluorescence-reduction test (GFP-RA) in NHDF cells; type: cell-based, human cytomegalovirus; settings: read-out: EC50 (GFP-RA)
Protocol: The in vitro effects of the compositions according to the present invention on the replication of the HCMV (human cytomegalovirus) can be seen in the following antiviral assay:
HCMV Fluorescence-Reduction Test.
The test compositions are used as a 50-millimolar (mM) solution in dimethyl sulphoxide (DMSO). Ganciclovir®, Foscarnet® or Cidofovir® can be used as reference compositions. One day before the beginning of the test, 1.5×10^4 human foreskin fibroblasts (NHDF cells)/well are seeded in 200 μl of cell culture medium in Wells B2-G11 of 96-well plates (black with transparent floor). The wells along the edges of each 96-well plate are filled with 200 μl of medium only in order to prevent edge effects. On the day of the test the cell culture medium in Wells B2-G11 of each 96-well plate is vacuumed off by a suction device and replaced with 100 μl of virus suspension (multiplicity of infection (MOI): 0.1-0.2). The virus used is a recombinant HCMV which has integrated an expression cassette for green fluorescence protein (GFP) in the virus genome (HCMV AD 169 RV-HG [E. M. Borst, K. Wagner, A. Binz, B. Sodeik, and M. Messerle, 2008, J. Virol. 82:2065-2078.]). After an incubation time of 2 h at 37° C. and 5% CO2, the virus inoculate is vacuumed off by a suction device and all wells, with the exception of the wells in Column 3, are filled with 200 μl of cell culture medium. Column 2 is not treated further and serves as a virus control. The wells in Column 3 are each filled with 300 μl of test substance (diluted in cell culture medium) for duplicate analysis. The concentration of the respective antiviral substance in Column 3 is ˜27 times as concentrated as the respective anticipated EC50 value. […] The GFP intensity of each well in a 96-well plate is then determined using a fluorescence scanner (FluoBox; Bayer Technology Services GmbH; filter settings: GFP, […], Em 520 nm). The measured values thus obtained can be used to determine the EC50 of an anti-HCMV: […]

[2] = Solubility measurement of saturated solution in phosphate buffer (HPLC); type: physicochemical
Protocol: In order to determine the solubility, a saturated solution of the salt from Example 2 was prepared in phosphate buffer at pH 7.0 and shaken at room temperature for 2 hours. The suspensions obtained were filtered by means of a syringe filter (0.45 μm pore diameter) and after being diluted the clear solutions were measured by HPLC. Pure phosphate buffer was used as the blank sample. The solubility was calculated in terms of the absorption of a reference solution of the amorphous zwitterion in phosphate buffer.

[3] = Human betaherpesvirus 5, AD169, NHDF, 168 h

COc1cccc(N2CCN(C3=Nc4c(F)cccc4[C@H](CC(=O)[O-])N3c3cc(C(F)(F)F)ccc3OC)CC2)c1.O.O.O.[Na+] [Example 2, 3-hydrate of the monosodium salt of (S)-{8-fluoro-2-[4-(3-methoxyphenyl)piperazine-1-yl]-3-[2-methoxy-5-(trifluoromethyl)phenyl]-3,4-dihydroquinazoline-4-yl}acetic acid]
EC50 ([1]; virus strain AD169 RV-HG, human foreskin fibroblasts (NHDF cells), 7 days incubation, 50% reduction of GFP fluorescence): 3.9 nM
Solubility in buffer ([2]; pH 7): >91700 µg/mL

Nc1nc(O)c2ncn(COC(CO)CO)c2n1 [Ganciclovir, reference compound]
EC50 [1, 3]: 2200 nM

COc1cccc(N2CCN(C3=Nc4c(F)cccc4[C@H](CC(=O)O)N3c3cc(C(F)(F)F)ccc3OC)CC2)c1 [Example 6A, (S)-{8-fluoro-2-[4-(3-methoxyphenyl)piperazine-1-yl]-3-(2-methoxy-5-trifluoromethyl-phenyl)-3,4-dihydroquinazoline-4-yl}acetic acid]
EC50 [1, 3]: 3.4 nM
solubility at 2 h ([2]; aqueous buffer, thermodynamic from solid, phosphate buffer pH 7.0, room temperature, shaken 2 hours, filtered 0.45 μm, HPLC): 400 µg/mL (≈ 699 µM)
